Experimental data taken from US12521396B2, “Pharmaceutical compositions comprising a MENIN inhibitor” (Kura Oncology, Inc., priority 2023, dated 2026).

Columns and labels:
[1] = Excipient compatibility and formulation stability studies; type: physicochemical; details: excipient compatibility studies for tablet formulations
Excerpt: Compound 1 drug substance may have a low bulk density, small particle size, and needle-like morphology, all leading to poor flowability. Dry granulation using roller compaction was improved the powder flow and bulk density characteristics to enable capsule-filling. In addition, while glidants such as talc and colloidal silicon dioxide were not effective in improving powder flow and bulk density characteristics, mannitol and microcrystalline cellulose fillers improved the blend flow in the roller compactor.
In particular, these studies indicated less risk of instability in the presence of lactose as a diluent compared to mannitol.

[2] = Solid form stability on standing after recrystallization from MEK/IPA; type: physicochemical; details: recrystallized from MEK/IPA at 40° C., filtered at 25° C.
Protocol: Preparation A: Amorphous Compound 1 (prepared as described in U.S. Pat. No. 10,781,218, which is herein incorporated by reference in its entirety) was dissolved in 1:1 MEK/IPA v/v (4.5 mL/g) at ˜50-65° C. under N2. The solution was cooled to 33-37° C. Seed crystals were added (0.8-1.2 wt % relative to Compound 1) and the mixture was stirred for 4-6 h at 33-37° C. The mixture was cooled to 23-27° C. over 3-4 hours and stirred for 16-24 hours. Isopropanol (8.6-9.1 mL/g Compound 1) was added at 23-27° C. over 9-11 hours and then the mixture was stirred for 5-6 hours. The mixture was cooled to 3-8° C. over 4-6 hours and stirred for at least 24 hours. The resulting solid precipitate was collected at 5° C. The filter cake was rinsed with IPA (1.8-2.1 mL/g Compound 1) at 3-8° C. and dried under vacuum at 45-55° C. for 24-32 hours. XRPD analysis confirmed the isolated material as crystalline Compound 1, Form 1. Purity of 99.5% by HPLC and total residual solvents was about 0.4% wt by ^1H NMR. Recrystallization of Compound 1, Form 1, in MEK/IPA (6 v/12 v) by dissolving in MEK and adding IPA in portions at 25° C., stirring the suspension after addition of each IPA portion, cooling to 5° C., and stirring at 5° C. for 20 h produced a wet cake that was a mixture of two crystalline forms (Form 2 and Form 5) that were not Form 1. […]

Solid form stability upon standing [2] | Compound | Stability of Compound 1 with excipients [1]
– | CNc1nc(NC2CCN(Cc3ccc4c(cc(C#N)n4C[C@H](C)N4CCN(S(C)(=O)=O)CC4)c3C)CC2)c2cc(CC(F)(F)F)sc2n1 [Compound 1, (S)-4-methyl-5-((4-((2-(methylamino)-6-(2,2,2-trifluoroethyl)thieno[2,3-d]pyrimidin-4-yl)amino)piperidin-1-yl)methyl)-1-(2-(4-(methylsulfonyl)piperazin-1-yl)propyl)-1H-indole-2-carbonitrile] | impact to Compound 1 stability with certain excipients
converted to Form 5 | CNc1nc(NC2CCN(Cc3ccc4c(cc(C#N)n4C[C@H](C)N4CCN(S(C)(=O)=O)CC4)c3C)CC2)c2cc(CC(F)(F)F)sc2n1 [Form 1, (S)-4-methyl-5-((4-((2-(methylamino)-6-(2,2,2-trifluoroethyl)thieno[2,3-d]pyrimidin-4-yl)amino)piperidin-1-yl)methyl)-1-(2-(4-(methylsulfonyl)piperazin-1-yl)propyl)-1H-indole-2-carbonitrile] | –
